Measured values taken from PubChem BioAssay AID256 (DTP/NCI, 2004).
Values joined by “and” are separate entries in the source; they are usually repeats but may differ in a detail not shown here. Identical values can stand only once. Toxic doses and inconclusive results are not listed. Rule for the calls: active = survival T/C of 150% or more; inactive = T/C below 125% in these data.

Tested on: CD2F1 mice, L1210 leukemia ip, survival T/C
Experiment: NCI In Vivo Anticancer Drug Screen. Data for tumor model L1210 Leukemia (intraperitoneal) in CD2F1 (CDF1) mice
Settings: endpoint: mean survival time, higher = longer survival
In short: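 Vehicle-treated tumor-bearing mice served as controls (C) for compound-treated mice (T). Reported figure is T divided by C.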

[1] = dose: 100.0 mg/kg/injection, schedule: Q04DX003 (ip), vehicle: saline with Tween-80
[2] = dose: 200.0 mg/kg/injection, schedule: Q04DX003 (ip), vehicle: saline with Tween-80
[3] = dose: 400.0 mg/kg/injection, schedule: Q04DX003 (ip), vehicle: saline with Tween-80
[4] = dose: 100.0 mg/kg/injection, schedule: Q01DX009 (ip), vehicle: saline with Tween-80
[5] = dose: 100.0 mg/kg/injection, schedule: Q04DX003 (ip), vehicle: saline
[6] = dose: 200.0 mg/kg/injection, schedule: Q01DX009 (ip), vehicle: saline with Tween-80
[7] = dose: 200.0 mg/kg/injection, schedule: Q04DX003 (ip), vehicle: saline
[8] = dose: 400.0 mg/kg/injection, schedule: Q01DX009 (ip), vehicle: saline with Tween-80
[9] = dose: 400.0 mg/kg/injection, schedule: Q04DX003 (ip), vehicle: saline
[10] = dose: 100.0 mg/kg/injection, schedule: Q01DX001 (ip), vehicle: saline with Tween-80
[11] = dose: 400.0 mg/kg/injection, schedule: Q01DX001 (ip), vehicle: saline with Tween-80
[12] = dose: 25.0 mg/kg/injection, schedule: Q01DX009 (ip), vehicle: Klucel (hydroxypropylcellulose) (HPC)
[13] = dose: 50.0 mg/kg/injection, schedule: Q01DX009 (ip), vehicle: Klucel (hydroxypropylcellulose) (HPC)
[14] = dose: 100.0 mg/kg/injection, schedule: Q01DX009 (ip), vehicle: Klucel (hydroxypropylcellulose) (HPC)
[15] = dose: 200.0 mg/kg/injection, schedule: Q01DX009 (ip), vehicle: Klucel (hydroxypropylcellulose) (HPC)
[16] = dose: 400.0 mg/kg/injection, schedule: Q01DX009 (ip), vehicle: Klucel (hydroxypropylcellulose) (HPC)
[17] = dose: 75.0 mg/kg/injection, schedule: Q01DX001 (ip), vehicle: saline
[18] = dose: 150.0 mg/kg/injection, schedule: Q01DX001 (ip), vehicle: saline

Measured: T/C

CC1(C)CC(O)(C(Cl)c2ccccc2)C(=O)c2ccccc21 (stereo unspecified)
inactive: dose: 25.0 mg/kg/injection, schedule: Q01DX009 (ip), vehicle: water 103 % of control | dose: 50.0 mg/kg/injection, schedule: Q01DX009 (ip), vehicle: water 104 % of control | dose: 100.0 mg/kg/injection, schedule: Q01DX009 (ip), vehicle: water 98 % of control | dose: 100.0 mg/kg/injection, schedule: Q04DX003 (ip), vehicle: acetone 98 % of control | dose: 200.0 mg/kg/injection, schedule: Q01DX009 (ip), vehicle: water 109 % of control | dose: 200.0 mg/kg/injection, schedule: Q04DX003 (ip), vehicle: acetone 95 % of control | dose: 400.0 mg/kg/injection, schedule: Q01DX009 (ip), vehicle: water 107 % of control | dose: 400.0 mg/kg/injection, schedule: Q04DX003 (ip), vehicle: acetone 95 % of control

OC(CS)C(c1ccccc1)c1ccccc1 (stereo unspecified)
inactive: [1] 98 % of control | [2] 93 % of control | [3] 96 % of control

Cc1nc(Cl)c(C)c(C(=O)O)n1
inactive: dose: 12.5 mg/kg/injection, schedule: Q01DX009 (ip), vehicle: other 98 % of control | dose: 25.0 mg/kg/injection, schedule: Q01DX009 (ip), vehicle: other 102 % of control | dose: 50.0 mg/kg/injection, schedule: Q01DX009 (ip), vehicle: other 104 % of control | dose: 100.0 mg/kg/injection, schedule: Q01DX009 (ip), vehicle: other 96 % of control

CC(=O)CCC(C)=O
inactive: [4] 100 % of control | [5] 97 % of control | [6] 109 % of control | [7] 100 % of control | [8] 100 % of control | [9] 94 % of control

C(/C=C/c1ccccc1)=Nc1ccc(CCc2ccc(N=C/C=C/c3ccccc3)cc2)cc1
inactive: [10] 103 % of control | dose: 200.0 mg/kg/injection, schedule: Q01DX001 (ip), vehicle: saline with Tween-80 93 % of control | [11] 91 % of control

CC(C(=O)N1c2ccccc2Sc2ccccc21)[N+](C)(C)C (stereo unspecified)
inactive: dose: 12.5 mg/kg/injection, schedule: Q04DX003 (ip), vehicle: saline 97 % of control | dose: 25.0 mg/kg/injection, schedule: Q04DX003 (ip), vehicle: saline 101 % of control | dose: 50.0 mg/kg/injection, schedule: Q04DX003 (ip), vehicle: saline 101 % of control

C#CC(C)OCC1CNC(=S)O1 (stereo unspecified)
inactive: [12] 96 % of control | [13] 92 % of control | [14] 94 % of control | [15] 97 % of control | [16] 91 % of control

C1Cn2nnnc2N1
inactive: [5] 103 % of control | [7] 103 % of control | [9] 94 % of control

Cc1cc[n+](CC(=O)CCc2ccc(C(=O)C[n+]3ccc(C)cc3)cc2)cc1
inactive: dose: 1.5 mg/kg/injection, schedule: Q04DX003 (ip), vehicle: saline 100 % of control | dose: 3.0 mg/kg/injection, schedule: Q04DX003 (ip), vehicle: saline 103 % of control | dose: 6.0 mg/kg/injection, schedule: Q04DX003 (ip), vehicle: saline 95 % of control

C=C[Si](C=C)(C=C)C=C
inactive: dose: 100.0 mg/kg/injection, schedule: Q01DX001 (ip), vehicle: saline 101 % of control | dose: 200.0 mg/kg/injection, schedule: Q01DX001 (ip), vehicle: saline 104 % of control | dose: 400.0 mg/kg/injection, schedule: Q01DX001 (ip), vehicle: saline 107 % of control

O=S1CCCCO1 (stereo unspecified)
inactive: dose: 75.0 mg/kg/injection, schedule: Q04DX003 (ip), vehicle: saline 95 % of control | dose: 150.0 mg/kg/injection, schedule: Q04DX003 (ip), vehicle: saline 101 % of control

O=P(O)(CO)CO
inactive: dose: 50.0 mg/kg/injection, schedule: Q01DX009 (ip), vehicle: saline 95 % of control | dose: 100.0 mg/kg/injection, schedule: Q01DX009 (ip), vehicle: saline 101 % of control | dose: 200.0 mg/kg/injection, schedule: Q01DX009 (ip), vehicle: saline 95 % of control

COC1OC(COC(C)=O)C(OC(C)=O)C(OC(C)=O)[CH]1[Hg][O]C(C)=O (stereo unspecified)
inactive: dose: 6.25 mg/kg/injection, schedule: Q01DX009 (ip), vehicle: saline 106 % of control | dose: 12.5 mg/kg/injection, schedule: Q01DX009 (ip), vehicle: saline 108 % of control | dose: 25.0 mg/kg/injection, schedule: Q01DX009 (ip), vehicle: saline 97 % of control

O=C(O)CCN1C(=O)c2ccccc2C1=O
inactive: [1] 98 % of control | [2] 97 % of control | [3] 97 % of control

OCCC(c1ccccc1)C1CCCCN1 (stereo unspecified)
inactive: [17] 101 % of control | [18] 100 % of control

S=C(Nc1ccc(Cl)c(Cl)c1)N1c2ccccc2-n2cccc2C1c1cccnc1 (stereo unspecified)
inactive: dose: 12.5 mg/kg/injection, schedule: Q01DX009 (ip), vehicle: Klucel (hydroxypropylcellulose) (HPC) 96 % of control and 104 % of control | [12] 98 % of control and 105 % of control | [13] 104 % of control and 109 % of control | [14] 113 % of control and 114 % of control and 107 % of control | [15] 115 % of control and 120 % of control and 123 % of control | [16] 112 % of control

C(=Nc1ccccc1)c1ccccc1C=Nc1ccccc1
inactive: [4] 94 % of control | dose: 100.0 mg/kg/injection, schedule: Q04DX003 (ip), vehicle: saline sonified 100 % of control | [6] 92 % of control | dose: 200.0 mg/kg/injection, schedule: Q04DX003 (ip), vehicle: saline sonified 100 % of control | [8] 94 % of control | dose: 400.0 mg/kg/injection, schedule: Q04DX003 (ip), vehicle: saline sonified 102 % of control

COC1OC(CSC#N)C2OC(C)(C)OC12 (stereo unspecified)
inactive: dose: 5.0 mg/kg/injection, schedule: Q01DX001 (ip), vehicle: saline 97 % of control | dose: 10.0 mg/kg/injection, schedule: Q01DX001 (ip), vehicle: saline 101 % of control | dose: 20.0 mg/kg/injection, schedule: Q01DX001 (ip), vehicle: saline 101 % of control | dose: 40.0 mg/kg/injection, schedule: Q01DX001 (ip), vehicle: saline 101 % of control

O=C1C(O)CC(c2ccccc2)N1c1ccccc1 (stereo unspecified)
inactive: [1] 95 % of control | [2] 95 % of control | [3] 100 % of control

CCCCCCC(C(=O)OCC)P(=O)(OCC)OCC (stereo unspecified)
inactive: dose: 18.75 mg/kg/injection, schedule: Q01DX009 (ip), vehicle: saline with Tween-80 98 % of control | dose: 37.5 mg/kg/injection, schedule: Q01DX009 (ip), vehicle: saline with Tween-80 96 % of control | dose: 75.0 mg/kg/injection, schedule: Q01DX009 (ip), vehicle: saline with Tween-80 96 % of control | dose: 75.0 mg/kg/injection, schedule: Q04DX003 (ip), vehicle: saline with Tween-80 95 % of control

CNC(=O)/C(=C(\[O-])NC)[S+](C)(C)=O
inactive: [1] 101 % of control | [2] 100 % of control | [3] 100 % of control

c1ccc(-c2ncnc3c2Cc2ccccc2-3)cc1
inactive: dose: 100.0 mg/kg/injection, schedule: Q01DX009 (ip), vehicle: saline sonified 94 % of control | dose: 200.0 mg/kg/injection, schedule: Q01DX009 (ip), vehicle: saline sonified 100 % of control | dose: 400.0 mg/kg/injection, schedule: Q01DX009 (ip), vehicle: saline sonified 98 % of control

COc1ccc(CCN)cc1O
inactive: [17] 98 % of control | [18] 98 % of control | dose: 300.0 mg/kg/injection, schedule: Q01DX001 (ip), vehicle: saline 98 % of control

NC(N)=NC(N)=Nc1cc(Cl)c(Cl)cc1Cl
inactive: [1] 96 % of control | [2] 96 % of control | [3] 98 % of control

CC(=Nc1ccccc1)C1=C(O)C(Cc2cccc(F)c2)NC1=O (stereo unspecified)
inactive: dose: 100.0 mg/kg/injection, schedule: Q04DX002 (ip), vehicle: saline with Tween-80 116 % of control | dose: 400.0 mg/kg/injection, schedule: Q04DX002 (ip), vehicle: saline with Tween-80 103 % of control

COc1cc2c(cc1OCc1ccccc1)NC(=O)C2
inactive: [10] 91 % of control | [11] 86 % of control

OC1(c2ccccc2)CCN(C/C=C/c2ccccc2)CC1
inactive: dose: 25.0 mg/kg/injection, schedule: Q01DX001 (ip), vehicle: saline with Tween-80 102 % of control | dose: 50.0 mg/kg/injection, schedule: Q01DX001 (ip), vehicle: saline with Tween-80 101 % of control | [10] 102 % of control and 103 % of control
